Measurements: patent publication US20170081331A1, “Pyrazolopyrazines and their use in the treatment, amelioration or prevention of a viral disease” (F. Hoffmann-La Roche AG, priority 2015, published 2017)
Like-named read-outs stand apart in the source and are kept apart here.

Assays:
[1] = target: T1, influenza A virus (IAV) PA-Nter fragment (amino acids 1-209) (Influenza A virus, UniProt P31343); experiment: FRET endonuclease activity assay; format: biochemical; conditions: PA-Nter 0.5 μM, 1.6 μM RNA substrate; from initial reaction velocities (v0)
T1 construct: PA-Nter fragment (amino acids 1-209); made in house

[2] = target: whole RNP complex of IAV strain A/PR/8/34 (Influenza A virus, UniProt P03433); experiment: Transcription assay (TA assay), Quantigene detection of de novo viral mRNA; format: biochemical, influenza A virus A/PR/8/34; conditions: 80 pM RNPs, 2 nM capped RNA substrate, cell-free

Row | SMILES | IC50 [1] [µM] | IC50 ([2]; read-out: TA assay IC50) [µM] | further results
1 | CC(C)N1CCn2c(c(O)c(=O)n2Cc2ccccc2)C1=O | 12.4 |  | 
2 | CC(C)N1CCn2[nH]c(=O)c(O)c2C1=O | 1.31 |  | 
3 | CC(C)N1CCn2c(c(O)c(=O)n2CCc2ccccc2)C1=O | 7.54 |  | 
4 | CC(C)N1CC(C)n2c(c(O)c(=O)n2Cc2ccccc2)C1=O (stereo not shown) | 2.63 |  | 
5 | CC(C)N1CC(c2ccccc2)n2c(c(O)c(=O)n2Cc2ccccc2)C1=O (stereo not shown) |  | 5.85 | 
6 | O=C(O)c1nn2c(c1OCc1ccccc1)C(=O)NCC2 |  | 0.532 | 
7 | O=C(O)c1nn2c(c1O)C(=O)NCC2Cc1ccccc1 (stereo not shown) |  | 35.1 | 
8 | COC(=O)c1nn2c(c1O)C(=O)N(C(C)C)CC2 |  |  | IC50 ([2]; read-out: TA IC50 (unit inferred)): 79.6 µM
9 | CN1CC(Cc2ccccc2)n2nc(C(=O)O)c(O)c2C1=O (stereo not shown) |  | 25.5 | 
10 | CC(C)N1CC(Cc2ccccc2)n2nc(C(=O)O)c(O)c2C1=O (stereo not shown) |  | 13.2 | 
